Measurements taken from patent US10287305B2, “Substituted piperidine compound and use thereof” (Takeda Pharmaceutical Company Limited, priority 2016, dated 2019).

Molecular target: human orexin type 2 receptor (hOX2R) (Homo sapiens (Human), UniProt O43614)
Experiment: Measurement of orexin type 2 receptor agonist activity (Experimental Example 2-1, FLIPR TETRA, intracellular Ca2+)
Format: cell-based
Details: CHO dhfr- cells expressing hOX2R; for Emax: read-out: Emax (%); for Emax at 30 µM: value at 30 uM concentration, orexin B as full agonist = 100%
[1] = agonist activity, 10 nM human orexin B = 100%

Chain of human orexin type 2 receptor (hOX2R) (O43614 whole entry): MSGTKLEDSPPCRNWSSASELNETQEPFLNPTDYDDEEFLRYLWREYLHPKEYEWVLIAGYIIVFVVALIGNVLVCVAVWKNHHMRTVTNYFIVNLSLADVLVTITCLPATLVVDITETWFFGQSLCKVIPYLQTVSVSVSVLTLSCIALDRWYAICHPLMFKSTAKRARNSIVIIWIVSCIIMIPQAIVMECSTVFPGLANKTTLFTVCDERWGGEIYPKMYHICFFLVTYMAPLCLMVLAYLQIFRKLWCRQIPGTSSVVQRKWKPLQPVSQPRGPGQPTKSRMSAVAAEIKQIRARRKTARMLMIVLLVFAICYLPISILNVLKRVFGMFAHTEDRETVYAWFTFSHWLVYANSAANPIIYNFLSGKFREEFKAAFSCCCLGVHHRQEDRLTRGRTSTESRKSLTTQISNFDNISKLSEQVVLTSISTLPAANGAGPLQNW

Row | Structure (SMILES) | EC50 (FLIPR TETRA, Fluo-4AM) | Emax (FLIPR TETRA, Fluo-4AM) | EC50 [1] | Emax at 30 µM
1 | CS(=O)(=O)N[C@H]1CCCN(C(=O)CO)[C@H]1CO[C@H]1CC[C@@H](c2ccccc2C(F)(F)F)CC1 [Example 283, N-((2R,3S)-1-glycoloyl-2-(((cis-4-(2-(trifluoromethyl)phenyl)cyclohexyl)oxy)methyl)piperidin-3-yl)methanesulfonamide] | 8.9 nM | 95% |  | 
2 | Cc1nc(S(=O)(=O)N2CCC[C@H](NS(C)(=O)=O)[C@@H]2CO[C@H]2CC[C@@H](C(C)C)CC2)cn1C (relative stereo) [Example 65, N-(cis-1-((1,2-dimethyl-1H-imidazol-4-yl)sulfonyl)-2-(((cis-4-isopropylcyclohexyl)oxy)methyl)piperidin-3-yl)methanesulfonamide] |  |  | 1300 nM | 95%
3 | CCNC(=O)N1CCC[C@H](NS(C)(=O)=O)[C@@H]1CO[C@H]1CC[C@@H](c2cccc(OC(F)(F)F)c2)CC1 (relative stereo) [Example 300, cis-N-ethyl-3-((methylsulfonyl)amino)-2-(((cis-4-(3-(trifluoromethoxy)phenyl)cyclohexyl)oxy)methyl)piperidine-1-carboxamide] | 9.7 nM | 94% |  | 
4 | COc1cccc([C@H]2CC[C@@H](OC[C@@H]3NCCC[C@@H]3NS(C)(=O)=O)CC2)c1 (relative stereo) [Example 269, N-(cis-2-(((cis-4-(3-methoxyphenyl)cyclohexyl)oxy)methyl)piperidin-3-yl)methanesulfonamide] | 3000 nM | 95% |  | 
5 | CS(=O)(=O)N[C@H]1CCCN(C(=O)C2CCCC2)[C@H]1COC1CCN(c2ccccc2F)CC1 (relative stereo) [Example 229, N-(cis-1-(cyclopentylcarbonyl)-2-(((1-(2-fluorophenyl)piperidin-4-yl)oxy)methyl)piperidin-3-yl)methanesulfonamide] | 1500 nM | 85% |  | 
6 | CS(=O)(=O)N[C@H]1CCCN(C(=O)[C@H]2CCOC2)[C@H]1CO[C@H]1CC[C@@H](c2ccccc2)CC1 [Example 149, N-(cis-2-(((cis-4-phenylcyclohexyl)oxy)methyl)-1-((3S)-tetrahydrofuran-3-ylcarbonyl)piperidin-3-yl)methanesulfonamide] | 25 nM | 100% |  | 
7 | CS(=O)(=O)N[C@H]1CCCN(C(=O)C2CC2)[C@H]1COC1CCN(c2cc(F)ccc2Cl)CC1 (relative stereo) [Example 212, N-(cis-2-(((1-(2-chloro-5-fluorophenyl)piperidin-4-yl)oxy)methyl)-1-(cyclopropylcarbonyl)piperidin-3-yl)methanesulfonamide] | 2200 nM | 89% |  | 
8 | COC(=O)N1CCC[C@H](NS(C)(=O)=O)[C@@H]1CO[C@H]1CC[C@]2(CC1)OCc1ccccc12 [Example 275, methyl cis-3-((methylsulfonyl)amino)-2-(((1s,4′s)-3H-spiro[2-benzofuran-1,1′-cyclohexan]-4′-yloxy)methyl)piperidine-1-carboxylate] | 3100 nM | 87% |  | 
9 | CCNC(=O)N1CCC[C@H](NS(C)(=O)=O)[C@@H]1CO[C@H]1CC[C@@H](c2ccccc2C(F)(F)F)CC1 (relative stereo) [Example 249, cis-N-ethyl-3-((methylsulfonyl)amino)-2-(((cis-4-(2-(trifluoromethyl)phenyl)cyclohexyl)oxy)methyl)piperidine-1-carboxamide] | 0.61 nM | 99% |  | 
10 | CC(C)OC(=O)N1CCC[C@H](NS(C)(=O)=O)[C@@H]1CO[C@@H]1CCN(c2ncccn2)[C@H](C)C1 (stereo in doubt) [Example 329, isopropyl cis-2-(((cis-2-methyl-1-(pyrimidin-2-yl)piperidin-4-yl)oxy)methyl)-3-((methylsulfonyl)amino)piperidine-1-carboxylate] | 22 nM | 93% |  | 

Now from value to compound:

Row | EC50 (FLIPR TETRA, Fluo-4AM) | Emax (FLIPR TETRA, Fluo-4AM) | EC50 [1] | Emax at 30 µM | Structure (SMILES)
11 | 210 nM | 105% |  |  | CC(=O)N1CCC[C@H](NS(C)(=O)=O)[C@@H]1COC1CCC(F)(c2cccc(F)c2)CC1 (relative stereo) [Example 216, N-(cis-1-acetyl-2-(((4-fluoro-4-(3-fluorophenyl)cyclohexyl)oxy)methyl)piperidin-3-yl)methanesulfonamide]
12 |  |  | 980 nM | 96% | CC(C)[C@H]1CC[C@@H](OC[C@H]2[C@@H](NS(C)(=O)=O)CCCN2C(=O)C(C)(C)C)CC1 (relative stereo) [Example 53, N-(cis-1-(2,2-dimethylpropanoyl)-2-(((cis-4-isopropylcyclohexyl)oxy)methyl)piperidin-3-yl)methanesulfonamide]
13 | 78 nM | 88% |  |  | CC(C)(O)C(=O)N1CCC[C@H](NS(C)(=O)=O)[C@@H]1CO[C@H]1CC[C@@H](c2ccccc2)CC1 (relative stereo) [Example 189, N-(cis-1-(2-hydroxy-2-methylpropanoyl)-2-(((cis-4-phenylcyclohexyl)oxy)methyl)piperidin-3-yl)methanesulfonamide]
14 | 24 nM | 107% |  |  | CC(=O)N1CCC[C@H](NS(C)(=O)=O)[C@@H]1CO[C@H]1CC[C@@H](c2ccccc2F)CC1 [Example 240, N-((2R,3S)-1-acetyl-2-(((cis-4-(2-fluorophenyl)cyclohexyl)oxy)methyl)piperidin-3-yl)methanesulfonamide]
15 |  |  | 330 nM | 85% | CCNS(=O)(=O)N[C@H]1CCCN(C(C)=O)[C@H]1CO[C@H]1CC[C@@H](C(C)C)CC1 (relative stereo) [Example 79, N-(cis-1-acetyl-2-(((cis-4-isopropylcyclohexyl)oxy)methyl)piperidin-3-yl)-N′-ethylsulfuric diamide]
16 |  |  | 120 nM | 75% | CCNC(=O)N1CCC[C@H](NS(C)(=O)=O)[C@@H]1CO[C@H]1CC[C@@H](C(F)(F)F)CC1 (relative stereo) [Example 107, cis-N-ethyl-3-((methylsulfonyl)amino)-2-(((cis-4-(trifluoromethyl)cyclohexyl)oxy)methyl)piperidine-1-carboxamide]
17 |  |  | 4300 nM | 89% | CC(=O)N1CCC[C@H](NS(C)(=O)=O)[C@@H]1CO[C@H]1CC[C@@H](C(C)(C)F)CC1 (relative stereo) [Example 95, N-(cis-1-acetyl-2-(((cis-4-(2-fluoropropan-2-yl)cyclohexyl)oxy)methyl)piperidin-3-yl)methanesulfonamide]
18 | 2.9 nM | 95% |  |  | COC(=O)N1CCC[C@H](NS(C)(=O)=O)[C@@H]1CO[C@H]1CC[C@@H](c2ccccc2OC)CC1 [Example 277, methyl (2R,3S)-2-(((cis-4-(2-methoxyphenyl)cyclohexyl)oxy)methyl)-3-((methylsulfonyl)amino)piperidine-1-carboxylate]
19 |  |  | 63 nM | 91% | CC(=O)N1CCC[C@H](NS(=O)(=O)N(C)C)[C@@H]1CO[C@H]1CC[C@@H](C(C)C)CC1 (relative stereo) [Example 78, N′-(cis-1-acetyl-2-(((cis-4-isopropylcyclohexyl)oxy)methyl)piperidin-3-yl)-N,N-dimethylsulfuric diamide]
20 |  |  | 2.2 nM | 112% | CCCNC(=O)N1CCC[C@H](NS(C)(=O)=O)[C@@H]1CO[C@H]1CC[C@@H](C(C)C)CC1 (relative stereo) [Example 100, cis-2-(((cis-4-isopropylcyclohexyl)oxy)methyl)-3-((methylsulfonyl)amino)-N-propylpiperidine-1-carboxamide]
